Reference: patent US4611001A, “Antimycotic pyrazolotetrathiepins” (E. I. Du Pont de Nemours and Company, priority 1985, dated 1986)
Values after ≈ are worked out from the molar mass of the structure shown.

Legend:
[1] = test system: Microsporum gypseum (MICRO-1); assay: Protocol 2: agar dilution MIC, Eagle's Minimum Essential Medium Agar (EMEM); assay type: cell-based, Microsporum gypseum ATCC e9083; conditions: Nannizzia gypsea
Excerpt: (§1) The fused pyrazolotetrathiepins of the invention are useful as antimycotic agents. The data is a result of different state of the art protocols, which employ either agar dilution or microtiter broth dilution techniques.
(§2) The test organisms used are two yeasts, Candida albicans ATCC 11651 (CAND-1), C. albicans ATCC e10231 (CAND-2) and two dermatophyte strains. Microsporum gypseum ATCC e9083 (MICRO-1) and Trichophyton rubrum ATCC 18756 (TRICH-1). These organisms are standardized to a concentration of 10^7 organisms/mL, aliquoted and frozen at -70°.
(§3) The compounds are dissolved in dimethyl sulfoxide (DMSO) and tested at specific concentrations required for the particular assay.
(§4) Appropriate standards are included with each assay. Their minimal inhibitory concentrations (MIC) values are shown in Table 4 according to the particular protocol used. Stock solutions of standard agents are stored at -70° and diluted the day of the assay.
(§5) Protocols 1 & 2 use a modification of the agar dilution method (Barry, A. L., The Antimicrobic Susceptibility Test: Principles and Practices, Lea and Febiger, 1976) with either Sabouraud dextrose agar (protocol 1) or Eagle's Minimum Essential Medium Agar (EMEM) (protocol 2).
(§6) The compound is tested at four specific concentrations within the range of 100 μg/mL-0.04 μg/mL and is incorporated directly into 20 mL molten agar (50°). The plates are then inoculated with the spore suspensions of MICRO-1 and TRICH-1 at 5×10^6 spores/mL using a multi point inoculator. The plates are incubated at ambient temperature for seven days and the MIC values determined.

[2] = test system: Trichophyton rubrum (TRICH-1); assay: as above; assay type: cell-based, Trichophyton rubrum ATCC 18756
Excerpt: as §1, §2, §3, §4, §5, §6

[3] = test system: Candida albicans (CAND-1); assay: In vitro dilution MIC, protocol not given; assay type: cell-based, Candida albicans ATCC 11651; conditions: up to 100 μg/mL
Excerpt: as §1, §2, §3
(§7) Protocols 4 and 5 both utilize a standard microtiter broth dilution method described by Barry (Antimicrobic Susceptibilty Test: Principles and Practices, Lea and Febiger, 1976) but each uses a different medium. Protocol 4 uses Yeast Nitrogen Base broth pH 7.0 [Shadomy, S. Applied Microbiology, 17, 871-877 (1969)] while protocol 5 uses EMEM broth pH 7.4. […]
(§8) The compounds are tested from 100 μg/mL-0.4 μg/mL in 10-two fold serial dilutions and the assay is incubated at 37°, 5% CO2 for 24 hrs. MFC's are then determined as previously described but the plates are incubated under the conditions appropriate for Candida spp.

[4] = test system: Candida albicans (CAND-2); assay: In vitro dilution MIC, protocol not given; assay type: cell-based, C. albicans ATCC e10231; conditions: up to 100 μg/mL
Excerpt: as §1, §2, §3, §7, §8

[5] = test system: Microsporum gypseum (MICRO-1); assay: Protocol 3: microtiter broth dilution MIC/MFC for dermatophytes, EMEM; assay type: cell-based, Microsporum gypseum ATCC e9083; conditions: Nannizzia gypsea
Excerpt: as §1, §2, §3, §4
(§9) Protocol 3 is a microtiter broth dilution assay that has been adapted for dermatophytes using EMEM and is described by Granade and Artis, J. Clin. Micro., 6, 1043-1047 (1982). Both strains of dermatophytes, MICRO-1 and TRICH-1 are diluted in broth to achieve an inoculum of 1×10^4 spores/mL. The compound is serially diluted from 100 μg/mL to 0.4 μg/mL in 10-two fold dilutions. The test is incubated at 30° for 72 hrs and the MIC values are determined. The minimum fungicidal concentration (MFC) assay is performed using the 72 hr microtiter plates. (Szoka, F., Mycology Observer, November-December, 1983). These plates are shaken vigorously and lμl/broth well is transferred with a micropipetter onto the appropirate well on a 24 well agar (EMEM) plate. These plates are then incubated at 30° for 72 hrs and read for MFC's.

[6] = test system: Trichophyton rubrum (TRICH-1); assay: as above; assay type: cell-based, Trichophyton rubrum ATCC 18756
Excerpt: as §1, §2, §3, §4, §9

[7] = test system: Candida albicans (CAND-1); assay: Protocol 5: microtiter broth dilution MIC/MFC, EMEM broth pH 7.4; assay type: cell-based, Candida albicans ATCC 11651
Excerpt: as §1, §2, §3, §4
(§10) Protocols 4 and 5 both utilize a standard microtiter broth dilution method described by Barry (Antimicrobic Susceptibilty Test: Principles and Practices, Lea and Febiger, 1976) but each uses a different medium. Protocol 4 uses Yeast Nitrogen Base broth pH 7.0 [Shadomy, S. Applied Microbiology, 17, 871-877 (1969)] while protocol 5 uses EMEM broth pH 7.4. The test organisms, CAND-1 and CAND-2 are diluted in the appropriate broth to achieve an inoculum of 1×10^4 CFUs/mL.
as §8

[8] = test system: Candida albicans (CAND-2); assay: as above; assay type: cell-based, C. albicans ATCC e10231
Excerpt: as §1, §2, §3, §4, §10, §8

fungi = assay: in vitro antifungal (antimycotic) activity, general statement; assay type: cell-based; conditions: by-product; test not specified
Excerpt: as §1

[9] = test system: Candida albicans (CAND-1); assay: Protocol 4: microtiter broth dilution MIC, Yeast Nitrogen Base broth pH 7.0; assay type: cell-based, Candida albicans ATCC 11651; conditions: for MIC: Candida albicans
Excerpt: as §1, §2, §3, §4, §10, §8

[10] = test system: Candida albicans (CAND-2); assay: as above; assay type: cell-based, C. albicans ATCC e10231; conditions: for MIC: Candida albicans
Excerpt: as §1, §2, §3, §4, §10, §8

[11] = test system: Microsporum gypseum (MICRO-1); assay: Protocol 1: agar dilution MIC, Sabouraud dextrose agar; assay type: cell-based, Microsporum gypseum ATCC e9083; conditions: Nannizzia gypsea
Excerpt: as §1, §2, §3
(§11) Appropriate standards are included with each assay. Their minimal inhibitory concentrations (MIC) values are shown in Table 4 according to the particular protocol used. Stock solutions of standard agents are stored at -70° and diluted the day of the assay. […]
(§12) The compound is tested at four specific concentrations within the range of 100 μg/mL-0.04 μg/mL and is incorporated directly into 20 mL molten agar (50°). […] The plates are incubated at ambient temperature for seven days and the MIC values determined.

[12] = test system: Trichophyton rubrum (TRICH-1); assay: as above; assay type: cell-based, Trichophyton rubrum ATCC 18756
Excerpt: as §1, §2, §3, §11, §12

[13] = 168 h, Protocol 2, ambient temperature, seven days, read-out: MIC MICRO-1
[14] = 168 h, Protocol 2, ambient temperature, seven days, read-out: MIC TRICH-1
[15] = Candida albicans, Protocol 5, 37°, 5% CO2, 24 hrs, read-out: MIC CAND-1
[16] = Candida albicans, Protocol 5, 37°, 5% CO2, 24 hrs, read-out: MIC CAND-2
[17] = Protocol 4, mean of five determinations ± standard deviation, read-out: MIC CAND-1 of standards
[18] = Protocol 4, mean of five determinations ± standard deviation, read-out: MIC CAND-2 of standards
[19] = Candida albicans, Protocol 5, mean of five determinations ± standard deviation, read-out: MIC CAND-1 of standards
[20] = Candida albicans, Protocol 5, mean of five determinations ± standard deviation, read-out: MIC CAND-2 of standards
[21] = Protocol 4, mean of five determinations ± standard deviation
[22] = Protocol 5, mean of five determinations ± standard deviation

CC1(C)SSSc2cn(-c3ccccc3)nc2S1 [Example 3, 4,4-Dimethyl-7-phenyl-1,2,3,5-pyrazolotetrathiepin]
MIC [1, 13]: 1 µg/mL (≈ 3.2 µM) | MIC [2, 14]: 1 µg/mL (≈ 3.2 µM) | MIC CAND-1 (in words) [3]: Inactive at 100 μg/mL | MIC CAND-2 (in words) [4]: Inactive at 100 μg/mL

Cn1cc2c(n1)SSC(C)(C)SS2 [Example 4, 3,3-Dimethyl-7-methyl-1,2,4,5-pyrazolotetrathiepin]
MIC ([5]; Protocol 3, 30°, 72 hrs, read-out: MIC MICRO-1): 12.5 µg/mL (≈ 49.9 µM) | MFC ([5]; Protocol 3, in brackets, subculture on EMEM agar 30°, 72 hrs, read-out: MFC MICRO-1 (minimum fungicidal concentration)): 25 µg/mL (≈ 99.8 µM) | MIC ([6]; Protocol 3, 30°, 72 hrs, read-out: MIC TRICH-1): 12.5 µg/mL (≈ 49.9 µM) | MFC ([6]; Protocol 3, in brackets, subculture on EMEM agar 30°, 72 hrs, read-out: MFC TRICH-1 (minimum fungicidal concentration)): 25 µg/mL (≈ 99.8 µM) | MIC [7, 15]: 25 µg/mL (≈ 99.8 µM) | MFC ([7]; Candida albicans, Protocol 5, in brackets, read-out: MFC CAND-1 (minimum fungicidal concentration)): 50 µg/mL (≈ 200 µM) | MIC [8, 16]: 25 µg/mL (≈ 99.8 µM) | MFC ([8]; Candida albicans, Protocol 5, in brackets, read-out: MFC CAND-2 (minimum fungicidal concentration)): 50 µg/mL (≈ 200 µM)

CC1(C)SSc2cn(-c3ccccc3)nc2SS1 [3,3-dimethyl-7-phenyl-1,2,4,5-pyrazolotetrathiepin]
activity (in words) (fungi): inactive

Nc1nc(=O)[nH]cc1F [5-Fluorocytosine]
MIC [9, 17]: 0.7 ± 0.2 µg/mL (≈ 5.42 µM) | MIC [10, 18]: 1.1 ± 0.4 µg/mL (≈ 8.52 µM) | MIC [7, 19]: 1.1 ± 0.4 µg/mL (≈ 8.52 µM) | MIC [8, 20]: 1.3 ± 0.4 µg/mL (≈ 10.1 µM)

COC1=CC(=O)C[C@@H](C)[C@]12Oc1c(Cl)c(OC)cc(OC)c1C2=O [Griseofulvin]
MIC ([11]; Protocol 1, mean of five determinations ± standard deviation, read-out: MIC MICRO-1 of standards): 2 ± 0.7 µg/mL (≈ 5.67 µM) | MIC ([12]; Protocol 1, mean of five determinations ± standard deviation, read-out: MIC TRICH-1 of standards): 1.8 ± 0.7 µg/mL (≈ 5.1 µM) | MIC ([1]; Protocol 2, mean of five determinations ± standard deviation, read-out: MIC MICRO-1 of standards): 4.5 ± 3 µg/mL (≈ 12.8 µM) | MIC ([2]; Protocol 2, mean of five determinations ± standard deviation, read-out: MIC TRICH-1 of standards): 9.4 ± 4 µg/mL (≈ 26.6 µM) | MIC ([5]; Protocol 3, mean of five determinations ± standard deviation, read-out: MIC MICRO-1 of standards): 5.4 ± 2 µg/mL (≈ 15.3 µM) | MIC ([6]; Protocol 3, mean of five determinations ± standard deviation, read-out: MIC TRICH-1 of standards): 6.3 µg/mL (≈ 17.9 µM)

C[C@@H]1[C@H](O)[C@@H](C)/C=C/C=C/C=C/C=C/C=C/C=C/C=C/[C@H](O[C@@H]2O[C@H](C)[C@@H](O)[C@H](N)[C@@H]2O)C[C@@H]2O[C@](O)(C[C@@H](O)C[C@@H](O)[C@H](O)CC[C@@H](O)C[C@@H](O)CC(=O)O[C@H]1C)C[C@H](O)[C@H]2C(=O)O [Amphotericin B]
MIC CAND-1 of standards [9, 21]: 0.6 ± 0.2 µg/mL | MIC CAND-2 of standards [10, 21]: 0.5 ± 0.3 µg/mL | MIC CAND-1 of standards [7, 22]: 0.5 ± 0.3 µg/mL | MIC CAND-2 of standards [8, 22]: 0.7 ± 0.3 µg/mL

CC1(C)SSSc2nn(-c3ccccc3)cc2S1 [Example 2, 2,2-Dimethyl-7-phenyl-1,3,4,5-pyrazolotetrathiepin]
MIC [1, 13]: 1 µg/mL (≈ 3.2 µM) | MIC [2, 14]: 0.2 µg/mL (≈ 0.64 µM) | MIC CAND-1 (in words) [3]: Inactive at 100 μg/mL | MIC CAND-2 (in words) [4]: Inactive at 100 μg/mL

Clc1ccc(COC(Cn2ccnc2)c2ccc(Cl)cc2Cl)c(Cl)c1 (stereo not shown) [Miconazole]
MIC ([9]; read-out: MIC CAND-1 of standards): 0.36 ± 0.12 µg/mL (≈ 0.865 µM) | MIC ([10]; read-out: MIC CAND-2 of standards): 0.5 ± 0.2 µg/mL (≈ 1.2 µM) | MIC ([7]; Candida albicans, read-out: MIC CAND-1 of standards): 0.5 ± 0.4 µg/mL (≈ 1.2 µM) | MIC ([8]; Candida albicans, read-out: MIC CAND-2 of standards): 0.5 ± 0.4 µg/mL (≈ 1.2 µM)

C[C@@H]1[C@H](O)[C@@H](C)/C=C/C=C/CC/C=C/C=C/C=C/C=C/C(O[C@H]2O[C@H](C)[C@@H](O)[C@H](N)[C@@H]2O)CC2O[C@](O)(CC(O)C(O)CCC(O)CC(O)CC(O)CC(=O)O[C@H]1C)CC(O)C2C(=O)O (stereo partly shown) [Nystatin]
MIC CAND-1 of standards [9, 21]: 6.0 ± 2.0 µg/mL | MIC CAND-2 of standards [10, 21]: 5.0 ± 1.5 µg/mL | MIC CAND-1 of standards [7, 22]: 5.0 ± 0 µg/mL | MIC CAND-2 of standards [8, 22]: 4.5 ± 1.0 µg/mL

CC(=O)N1CCN(c2ccc(OCC3COC(Cn4ccnc4)(c4ccc(Cl)cc4Cl)O3)cc2)CC1 (stereo not shown) [Ketoconazole]
MIC [9, 17]: 0.15 ± 0.1 µg/mL (≈ 0.282 µM) | MIC [10, 18]: 0.22 ± 0.04 µg/mL (≈ 0.414 µM) | MIC [7, 19]: 0.3 ± 0.04 µg/mL (≈ 0.565 µM) | MIC [8, 20]: 0.2 ± 0.04 µg/mL (≈ 0.376 µM)

Cn1cc2c(n1)SSSC(C)(C)S2 [Example 5, 2,2-Dimethyl-7-methyl-1,3,4,5-pyrazolotetrathiepin]
MIC ([11]; 168 h, Protocol 1, ambient temperature, seven days, read-out: MIC MICRO-1): 4 µg/mL (≈ 16 µM) | MIC ([12]; 168 h, Protocol 1, ambient temperature, seven days, read-out: MIC TRICH-1): 4 µg/mL (≈ 16 µM) | MIC ([9]; Protocol 4, 37°, 5% CO2, 24 hrs, read-out: MIC CAND-1): 12.5 µg/mL (≈ 49.9 µM) | MIC ([10]; Protocol 4, 37°, 5% CO2, 24 hrs, read-out: MIC CAND-2): 6.3 µg/mL (≈ 25.2 µM) | MIC [7, 15]: 3.2 µg/mL (≈ 12.8 µM) | MIC [8, 16]: 1.6 µg/mL (≈ 6.39 µM)
